Data from ChEMBL document CHEMBL4376803, “Recent Advances in the Exploration of Therapeutic Analogues of Gramicidin S, an Old but Still Potent Antimicrobial Peptide” (J Med Chem, 2019).
In brackets after ≈: the same amount, converted by molar mass. One block for each molecule: values may come before it. Square brackets hold non-standard residues; d marks the D form. Peptide text beside a SMILES is read from it.

How the values were obtained:
[1] = system: Staphylococcus aureus; assay: Antibacterial activity against Staphylococcus aureus K147 after overnight incubation by microtiter dilution method; type: functional
[2] = system: Escherichia coli; assay: Antibacterial activity against Escherichia coli UB1005 after overnight incubation by microtiter dilution method; type: functional
[3] = target: Lipopolysaccharide (LPS); assay: Displacement of Dansyl-polymyxin from Pseudomonas aeruginosa LPS by fluorescence method; conditions: read-out: I50
[4] = system: Candida albicans; assay: Antibacterial activity against Candida albicans after overnight incubation by microtiter dilution method; type: functional
[5] = system: Pseudomonas aeruginosa; assay: Antibacterial activity against Pseudomonas aeruginosa H187 after overnight incubation by microtiter dilution method; type: functional
[6] = Therapeutic index, ratio of HD100 for hemolytic activity in human RBC to MIC against Escherichia coli UB1005; type: toxicity; conditions: human red blood cells, read-out: TI
[7] = system: Erythrocyte; assay: Haemolytic activity in human RBC after 4 hrs by visual method; type: ADME, cell-based
[8] = Therapeutic index, ratio of HD100 for hemolytic activity in human RBC to MIC against Enterococcus faecalis ATCC 29212; type: toxicity; conditions: human red blood cells, read-out: TI
[9] = Therapeutic index, ratio of HD100 for hemolytic activity in human RBC to MIC against Staphylococcus aureus K147; type: toxicity; conditions: human red blood cells, read-out: TI
[10] = system: Enterococcus faecalis; assay: Antibacterial activity against Enterococcus faecalis ATCC 29212 after overnight incubation by microtiter dilution method; type: functional
[11] = Therapeutic index, ratio of HD100 for hemolytic activity in human RBC to MIC against Pseudomonas aeruginosa H187; type: toxicity; conditions: human red blood cells, read-out: TI
[12] = system: Enterococcus faecalis; assay: Antibacterial activity against Enterococcus faecalis ATCC 29212 after 24 hrs; type: functional; conditions: ATCC 29212, 24 h
[13] = system: Staphylococcus aureus; assay: Antibacterial activity against methicillin-resistant Staphylococcus aureus NT 1110301981H-T034-PVL+ incubated for 24 hrs; type: functional
[14] = system: Staphylococcus aureus; assay: Antibacterial activity against Staphylococcus aureus ATCC 29213 after 24 hrs; type: functional; conditions: ATCC 29213, 24 h
[15] = system: Pseudomonas aeruginosa; assay: Antibacterial activity against Pseudomonas aeruginosa ATCC 27853 incubated for 24 hrs; type: functional; conditions: ATCC 27853, 24 h
[16] = system: Escherichia coli; assay: Antibacterial activity against Escherichia coli ATCC 25922 after 24 hrs; type: functional; conditions: ATCC 25922, 24 h
[17] = system: Escherichia coli; assay: Antibacterial activity against Escherichia coli NBRC 12734 after overnight incubation by microplate dilution method; type: functional
[18] = system: Pseudomonas aeruginosa; assay: Antibacterial activity against Pseudomonas aeruginosa NBRC 3080 after overnight incubation by microplate dilution method; type: functional
[19] = Hemolytic activity in sheep RBC incubated for 30 mins; type: ADME, cell-based, Ovis aries, Erythrocyte; conditions: sheep red blood cells
[20] = system: Bacillus subtilis; assay: Antibacterial activity against Bacillus subtilis NBRC 3513 after overnight incubation by microplate dilution method; type: functional
[21] = system: Priestia megaterium; assay: Antibacterial activity against Bacillus megaterium ATCC 19213 after overnight incubation by microplate dilution method; type: functional
[22] = system: Staphylococcus aureus; assay: Antibacterial activity against Staphylococcus aureus NBRC 12732 after overnight incubation by microplate dilution method; type: functional
[23] = system: Pseudomonas aeruginosa; assay: Antibacterial activity against Pseudomonas aeruginosa ATCC 19582 after 24 hrs by broth dilution method; type: functional; conditions: ATCC 19582, 24 h
[24] = Hemolytic activity against RBC (unknown origin) at 100 ul after 4 hrs; type: ADME, cell-based, Erythrocyte; conditions: red blood cells (unknown origin)
[25] = system: Enterococcus faecalis; assay: Antibacterial activity against Enterococcus faecalis 1131 after 24 hrs by broth dilution method; type: functional; conditions: Enterococcus faecalis, 1131, 24 h
[26] = system: Escherichia coli; assay: Antibacterial activity against Escherichia coli ATCC 25922 after 24 hrs by broth dilution method; type: functional; conditions: ATCC 25922, 24 h
[27] = system: Staphylococcus aureus; assay: Antibacterial activity against Staphylococcus aureus 7323; type: functional
[28] = system: Staphylococcus aureus; assay: Antibacterial activity against Staphylococcus aureus 209P incubated for 20 hrs by liquid microdilution method; type: functional
[29] = system: Escherichia coli; assay: Antibacterial activity against Escherichia coli K-12 strain W3110 incubated for 20 hrs by liquid microdilution method; type: functional; conditions: K-12 substr. W3110, 20 h
[30] = Haemolytic activity in human erythrocytes incubated for 30 mins; type: ADME, cell-based, Erythrocyte

Structure (SMILES): CC(C)[C@@H]1NC(=O)[C@H](CCCN)NC(=O)[C@@H]2CCCN2C(=O)[C@@H](Cc2ccccc2)NC(=O)[C@H](CCCN)NC(=O)[C@@H](C(C)C)NC(=O)[C@H](CCCN)NC(=O)[C@@H]2CCCN2C(=O)[C@@H](Cc2ccccc2)NC(=O)[C@H](CCCN)NC1=O
MIC [12]: > 64 µg/mL
MIC [13]: > 64 µg/mL
MIC [14]: > 64 µg/mL
MIC [15]: > 64 µg/mL
MIC [16]: > 64 µg/mL

Structure (SMILES): CC(C)C[C@@H]1NC(=O)[C@H](CCCN)NC(=O)[C@H](C(C)C)NC(=O)[C@H](CCCCN)NC(=O)[C@@H](Cc2ccccc2)NC(=O)[C@H](CC(C)C)NC(=O)[C@@H](CCCN)NC(=O)[C@H](C(C)C)NC(=O)[C@H](CCCCN)NC(=O)[C@@H](Cc2ccccc2)NC1=O
MIC [17]: 25 µg/mL (≈ 20.8 µM)
MIC [18]: 50 µg/mL (≈ 41.5 µM)
HC50 at 0.5 h [19]: > 200 µg/mL
MIC [20]: 6.25 µg/mL (≈ 5.19 µM)
MIC [21]: 3.13 µg/mL (≈ 2.6 µM)
MIC [22]: 3.13 µg/mL (≈ 2.6 µM)

Structure (SMILES): CC(C)C[C@@H]1NC(=O)[C@H](CCCN)NC(=O)[C@H](C(C)C)NC(=O)[C@@H]2CCCN2C(=O)[C@@H](Cc2cn(Cc3cccc4ccccc34)nn2)NC(=O)[C@H](CC(C)C)NC(=O)[C@@H](CCCN)NC(=O)[C@H](C(C)C)NC(=O)[C@@H]2CCCN2C(=O)[C@@H](Cc2ccccc2)NC1=O
MIC [23]: > 64 µg/mL
HC50 at 4 h [24]: 5 to 10 µg/mL
MIC [25]: 4 µg/mL (≈ 3.14 µM)
MIC [26]: 64 µg/mL (≈ 50.3 µM)
MIC [27]: 4 µg/mL (≈ 3.14 µM)

Structure (SMILES): CC(C)C[C@@H]1NC(=O)[C@H](CCCN)NC(=O)[C@H](C(C)C)NC(=O)[C@@H]2C[C@@H](N[C@@H](CCCCN)C(=O)O)CN2C(=O)[C@@H](Cc2ccccc2)NC(=O)[C@H](CC(C)C)NC(=O)[C@H](CCCN)NC(=O)[C@H](C(C)C)NC(=O)[C@@H]2C[C@@H](N[C@@H](CCCCN)C(=O)O)CN2C(=O)[C@@H](Cc2ccccc2)NC1=O [listing 1 of 2 here]
HC50 at 0.5 h [30]: > 100 µg/mL

Structure (SMILES): CC(C)C[C@@H]1NC(=O)[C@H](CCCN)NC(=O)[C@H](C(C)C)NC(=O)[C@@H]2C[C@@H](N[C@@H](CCCCN)C(=O)O)CN2C(=O)[C@@H](Cc2ccccc2)NC(=O)[C@H](CC(C)C)NC(=O)[C@H](CCCN)NC(=O)[C@H](C(C)C)NC(=O)[C@@H]2C[C@@H](N[C@@H](CCCCN)C(=O)O)CN2C(=O)[C@@H](Cc2ccccc2)NC1=O [listing 2 of 2 here]
MIC [28]: 8 µg/mL (≈ 5.6 µM)
MIC [29]: 16 µg/mL (≈ 11.2 µM)

Structure (SMILES): NCCC[C@@H]1NC(=O)[C@H](C23CC4CC(CC(C4)C2)C3)NC(=O)[C@H](CCCN)NC(=O)[C@@H]2CCCN2C(=O)[C@@H](Cc2ccccc2)NC(=O)[C@H](CCCN)NC(=O)[C@H](C23CC4CC(CC(C4)C2)C3)NC(=O)[C@H](CCCN)NC(=O)[C@@H]2CCCN2C(=O)[C@@H](Cc2ccccc2)NC1=O
MIC [12]: 8 µg/mL (≈ 6.03 µM)
MIC [13]: 8 µg/mL (≈ 6.03 µM)
MIC [14]: 8 µg/mL (≈ 6.03 µM)
MIC [15]: 16 µg/mL (≈ 12.1 µM)
MIC [16]: 8 µg/mL (≈ 6.03 µM)

Continued, in another order:

MIC [1]: > 200 µg/mL
MIC [2]: > 200 µg/mL
IC50 [3]: 3000 nM
MIC [4]: 175 µg/mL (≈ 105 µM)
MIC [5]: > 200 µg/mL
MIC [10]: 2.3 µg/mL (≈ 1.38 µM)
Structure (SMILES): CC(C)C[C@@H]1NC(=O)[C@H](CCCCN)NC(=O)[C@H](C(C)C)NC(=O)[C@@H]2CCCN2C(=O)[C@@H](Cc2ccc(O)cc2)NC(=O)[C@H](CC(C)C)NC(=O)[C@H](CCCCN)NC(=O)[C@H](C(C)C)NC(=O)[C@H](CCCCN)NC(=O)[C@H](CC(C)C)NC(=O)[C@@H]2CCCN2C(=O)[C@@H](Cc2ccc(O)cc2)NC(=O)[C@H](C(C)C)NC(=O)[C@H](CCCCN)NC1=O (cyclo(KLKV[dY]PLKVKL[dY]PV))
selectivity ratio [6]: < 0.01
HD100 [7]: 1.5 µg/mL
selectivity ratio [8]: 0.7
selectivity ratio [9]: < 0.01
selectivity ratio [11]: < 0.01

MIC [28]: 32 µg/mL (≈ 27.3 µM)
MIC [29]: 64 µg/mL (≈ 54.6 µM)
Structure (SMILES): CC(C)C[C@@H]1NC(=O)[C@H](CCCN)NC(=O)[C@H](C(C)C)NC(=O)[C@@H]2C[C@@H](N)CN2C(=O)[C@@H](Cc2ccccc2)NC(=O)[C@H](CC(C)C)NC(=O)[C@H](CCCN)NC(=O)[C@H](C(C)C)NC(=O)[C@@H]2C[C@@H](N)CN2C(=O)[C@@H](Cc2ccccc2)NC1=O

MIC [17]: 25 µg/mL (≈ 19 µM)
MIC [18]: 100 µg/mL (≈ 76.2 µM)
MIC [20]: 3.13 µg/mL (≈ 2.38 µM)
MIC [21]: 3.13 µg/mL (≈ 2.38 µM)
MIC [22]: 3.13 µg/mL (≈ 2.38 µM)
Structure (SMILES): CC(C)C[C@@H]1NC(=O)[C@H](CCCN)NC(=O)[C@H](C(C)C)NC(=O)[C@@H]2CCCN2C(=O)[C@@H](Cc2ccccc2)NC(=O)[C@H](CC(C)C)NC(=O)[C@H](CCCN)NC(=O)[C@H](C(C)C)NC(=O)[C@@H]2CCCN2C(=O)NC(=O)[C@H](Cc2ccccc2)NC(=O)[C@H](CCCCN)NC1=O
HC50 at 0.5 h [19]: > 100 µg/mL
